As a reminder, the IC50 is the point on the concentration scale where inhibition reaches its midpoint. The term MIC denotes the lowest concentration that inhibits growth of the organism.

Converted amounts (≈) assume the structure as drawn. Like-named read-outs stand apart in the source and are kept apart here.

Data set [1] concerns the target Escherichia coli UDP-2,3-diacylglucosamine hydrolase (LpxH) (Escherichia coli (strain K12), UniProt P43341). Nature of the data set: Enzymatic IC50 assay of Escherichia coli LpxH (UMP/CMP-Glo luminescence). It is filed as biochemical. Conditions: Enzymatic IC50 against Escherichia coli LpxH; read-out: IC50 (converted). The method, then:
The inhibitory potency of compounds of Escherichia coli UDP-2,3-diacylglucosamine hydrolase (LpxH) was determined in an enzymatic assay. UDP-2,3-diacylglucosamine (UDP-DAG) was purified from the Caulobacter crescentus LpxI D225A mutant protein that contained a tightly bound UDP-DAG molecule. The enzyme was diluted using assay buffer containing 50 mM NaCl, 20 mM Tris-HCl pH7.5, 2.5 mM MnCl2, 0.01% Triton X-100.1 mg/mL BSA, and the final concentration is 2 nM. The compounds were diluted by Agilent liquid handler Bravo, the compound's serial dilution dose ranges from 100 μM to 1.7 nM. Then the enzyme and compounds mixture were incubated at room temperature for 10 mins. The enzymatic assay was started by adding UDP-DAG (FAC is 5 μM) and incubated for 20 mins at room temperature. The plate was then heated to 95° C. for 15 mins on a water batch to stop the reaction. The hydrolysis of UDP-DAG by LpxH yielded 2,3-diacylglucosamine 1-phosphate (lipid X) and UMP, which was converted to ATP and quantified by the luciferase reaction using the UMP/CMP-Glo™ Glycosyltransferase Assay kit from Promega. The compound's inhibitory effect of LpxH is determined by measuring the light change using a luminometer (Envision).

The test system of data set [2] is Klebsiella pneumonia ATCC 43816. Nature of the data set: Minimal Inhibitory Concentration (MIC) broth dilution assay, K. pneumonia ATCC 43816. It is filed as cell-based. Conditions: CAMHB; for MIC: Klebsiella pneumoniae, ATCC43816, 20 hours at 35° C., read-out: MIC K. p ATCC 43816. The method, then:
(§1) The antibacterial activity of molecules was evaluated against the commonly used quality control strain Escherichia coli BW 25113, Escherichia coli ATCC 25922 and the rifampin-resistant mutant strain Klebsiella pneumonia ATCC 43816. Escherichia co/i BW 25113 was obtained from the Coli Genetic Stock Center (CGSC) (strain 7636). Both Escherichia coli ATCC 25922 and Klebsiella pneumonia ATCC 43816 were originally derived from human clinical samples and are available from ATCC (American Type Culture Collection). The in vitro potency of compounds to inhibit Escherichia coli (BW 25113, ATCC 25922) and Klebsiella pneumonia (ATCC 43816) growth was assessed by the MIC (Minimal Inhibitory Concentration) broth dilution method. Specifically compound dilutions were prepared from 10 mM DMSO stock solutions as follows: i) serial 2-fold dilution in 20 μL DMSO were prepared in a master plate (Greiner, Cat No: 651201), ii) 180 μL sterile distilled water was added to each aliquot and iii) 10 μL diluted compounds were transferred into a new assay plate (Costar, 3599).
(§2) Vials of each test microorganisms were maintained frozen in the vapor phase of a liquid nitrogen freezer. Single-use frozen vials of the three strains Escherichia coli BW 25113, Escherichia coli ATCC 25922 (KWTKSTTK, 0335K) and Klebsiella pneumonia ATCC 43816, with predetermined CFU/mL, were taken out from the freezer, thawed at room temperature, and diluted in Cation-Adjusted Mueller Hinton Broth (CAMVIHB) to achieve a final inoculum of 5×10^5 CFU/mL. 90 μL bacteria containing broth was dispensed to the assay plate containing the pre-dispensed compound dilutions and mixed by pipetting 5 times.
(§3) Then the assay plates were incubated for 20 hours at 35° C. in ambient air. Following incubation, the MIC […], the lowest concentration of drug that inhibits visible growth of the microorganism was read with the help of a magnification mirror and recorded.
(Dilution methods test growth across graded concentrations, often in twofold steps.)

In data set [3] the test system is Escherichia coli ATCC 25922. The experiment in a line: Minimal Inhibitory Concentration (MIC) broth dilution assay, E. coli ATCC 25922. It is filed as cell-based. Particulars: for MIC: Escherichia coli. Here is the method:
as §1, §2, §3

Data set [4] relates to Escherichia coli BW 25113. The experiment in a line: Minimal Inhibitory Concentration (MIC) broth dilution assay, E. coli BW 25113. It is filed as cell-based. Particulars: CAMHB; for MIC: Escherichia coli, BW25113, 20 hours at 35° C., read-out: MIC E. coli K-12 BW 25113. The method, then:
as §1, §2, §3

A short description of data set [5]: Human microsome stability assay. It is filed as in vitro ADME. The method, then:
The human microsomal stability assay is used for early assessment of metabolic stability of a test compound in human liver microsomes.
Human liver microsomes (Cat.NO.: 452117, Corning, USA) were preincubated with test compound for 10 minutes at 37° C. in 100 mM potassium phosphate buffer, pH 7.4. The reactions were initiated by adding NADPH regenerating system. The final incubation mixtures contained 1 µM test compound, 0.5 mg/mL liver microsomal protein, 1 mM MgCl2, 1 mM NADP, 1 unit/mL isocitric dehydrogenase and 6 mM isocitric acid in 100 mM potassium phosphate buffer, pH 7.4. After incubation times of 0, 3, 6, 9, 15 and 30 minutes at 37° C., 300 μL of cold acetonitrile (including internal standard) was added to 100 μL incubation mixture to terminate the reaction. Following precipitation and centrifugation, the amount of compound remaining in the samples were determined by LC-MS/MS. Controls of no NADPH regenerating system at zero and 30 minutes were also prepared and analyzed. […] (Human microsome clearance: <7 mL/min/kg: low; 7-16.2 mL/min/kg: medium; >16.2 mL/min/kg: high)

Setting [6] is: ATCC25922, 20 h, read-out: MIC E. coli ATCC 25922.
The mark [7] stands for this setting: ATCC25922, read-out: MIC E. coli ATCC 25922, broth dilution, 20 hours at 35° C., CAMHB, read-out: MIC E. coli K-12 ATCC 25922.
Setting [8] is: human liver microsomes 0.5 mg/mL, 37° C., pH 7.4, NADPH regenerating system.

Escherichia coli UDP-2,3-diacylglucosamine hydrolase (LpxH), sequence (P43341 whole entry): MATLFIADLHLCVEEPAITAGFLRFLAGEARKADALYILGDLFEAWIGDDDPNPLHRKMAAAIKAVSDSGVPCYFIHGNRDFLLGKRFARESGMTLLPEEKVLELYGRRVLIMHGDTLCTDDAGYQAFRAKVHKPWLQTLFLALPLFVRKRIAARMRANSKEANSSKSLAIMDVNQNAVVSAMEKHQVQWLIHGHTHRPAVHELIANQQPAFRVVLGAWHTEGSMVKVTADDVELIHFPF

With `COC(=O)[C@H]1CC[C@H](C(F)(F)c2cc(Cl)nc(N3CCN(S(=O)(=O)c4ccc(N5CC(N)CC5=O)cc4)CC3)c2)CC1` (stereo partly drawn) [Example 001, Trans-methyl 4-[[2-[4-[4-(4-amino-2-oxo-pyrrolidin-1-yl)phenyl]sulfonylpiperazin-1-yl]-6-chloro-4-pyridyl]-difluoro-methyl]cyclohexanecarboxylate], the half-maximal inhibitory concentration (IC50) in data set [1] is 3.19 nM. Moreover, the minimal inhibitory concentration (MIC) in data set [2] was found to be 0.98 µg/mL (≈ 1.57 µM); in data set [3] (setting [6]), 0.98 µg/mL (≈ 1.57 µM); in data set [4], 0.49 µg/mL (≈ 0.783 µM).

On to `N[C@@H]1CC(=O)N(c2ccc(S(=O)(=O)N3CCN(c4cc(C(F)(F)c5cnc(C(=O)NCCN6CCOCC6)cn5)cc(Cl)n4)CC3)cc2)C1` [Example 025, 5-[[2-chloro-6-[4-[4-[(4R)-4-amino-2-oxo-pyrrolidin-1-yl]phenyl]sulfonylpiperazin-1-yl]-4-pyridyl]-difluoro-methyl]-N-(2-morpholinoethyl)pyrazine-2-carboxamide], for which the IC50 in data set [1] is < 2.78 nM.

Consider `NCCNCCNC(=O)c1ccc(C(F)(F)c2cc(Cl)nc(N3CCN(S(=O)(=O)c4ccc(N5C[C@H](N)CC5=O)cc4)CC3)c2)nc1` [Example 028, N-[2-(2-aminoethylamino)ethyl]-6-[[2-chloro-6-[4-[4-[(4R)-4-amino-2-oxo-pyrrolidin-1-yl]phenyl]sulfonylpiperazin-1-yl]-4-pyridyl]-difluoro-methyl]pyridine-3-carboxamide], for which the half-maximal inhibitory concentration (IC50) in data set [1] was 20.2 nM. The minimum inhibitory concentration (MIC) in data set [2], in data set [3] (setting [7]) and in data set [4] was 1.6 µg/mL (≈ 2.31 µM) each time.

On to `N[C@@H]1CC(=O)N(c2ccc(S(=O)(=O)N3CCN(c4cc(C(F)(F)[C@H]5CC[C@@H](C(=O)NCCCO)CC5)cc(Cl)n4)CC3)cc2)C1` [Example 032], for which, in data set [1], the concentration for half-maximal inhibition (IC50) is < 2.99 nM. Besides, the values for the minimal inhibitory concentration (MIC) in data set [2], in data set [3] (setting [6]) and in data set [4] were 2.2 µg/mL (≈ 3.29 µM), 2.2 µg/mL (≈ 3.29 µM) and 3.3 µg/mL (≈ 4.93 µM), respectively.

As to `NCC(=O)NNC(=O)[C@H]1CC[C@H](C(F)(F)c2cc(Cl)nc(N3CCN(S(=O)(=O)c4ccc(N5C[C@H](N)CC5=O)cc4)CC3)c2)CC1` [Example 050, Trans-N′-(2-aminoacetyl)-4-[[2-chloro-6-[4-[4-[(4R)-4-amino-2-oxo-pyrrolidin-1-yl]phenyl]sulfonylpiperazin-1-yl]-4-pyridyl]-difluoro-methyl]cyclohexanecarbohydrazide], the IC50 in data set [1] is 2.93 nM. The results for the minimal inhibitory concentration (MIC) in data set [2], in data set [3] (setting [7]) and in data set [4] were 1.1 µg/mL (≈ 1.61 µM), 1.1 µg/mL (≈ 1.61 µM) and 2.1 µg/mL (≈ 3.07 µM), respectively.

For `Cc1cc(C(F)(F)[C@H]2CC[C@H](C(=O)NCCCN)CC2)nc(N2CCN(S(=O)(=O)c3ccc(N4C[C@H](N)CC4=O)cc3)CC2)n1` [Example 054, Trans-N-(3-aminopropyl)-4-[difluoro-[6-methyl-2-[4-[4-[(4R)-4-amino-2-oxo-pyrrolidin-1-yl]phenyl]sulfonylpiperazin-1-yl]pyrimidin-4-yl]methyl]cyclohexanecarboxamide], the IC50 in data set [1] is 37 nM.

`NC(=O)CNC(=O)[C@H]1CC[C@@H](C(F)(F)c2cc(Cl)nc(N3CCN(S(=O)(=O)c4ccc(N5C[C@H](N)CC5=O)cc4)CC3)c2)CC1` [Example 063, Cis-N-(2-amino-2-oxo-ethyl)-4-[[2-chloro-6-[4-[4-[(4R)-4-amino-2-oxo-pyrrolidin-1-yl]phenyl]sulfonylpiperazin-1-y1]-4-pyridyl]-difluoro-methyl]cyclohexanecarboxamide]: in data set [1], the IC50 is 5.99 nM.

On to `NCC(N)CNC(=O)[C@H]1CC[C@H](C(F)(F)c2cc(Cl)nc(N3CCN(S(=O)(=O)c4ccc(N5C[C@H](N)CC5=O)cc4)CC3)c2)CC1` (stereo partly drawn) [Example 077, Trans-4-[[2-chloro-6-[4-[4-[(4R)-4-amino-2-oxo-pyrrolidin-1-yl]phenyl]sulfonylpiperazin-1-yl]-4-pyridyl]-difluoro-methyl]-N-(2,3-diaminopropyl)cyclohexanecarboxamide], for which the half-inhibitory concentration (IC50) in data set [1] was 2.93 nM. The MIC in data set [2], in data set [3] (setting [7]) and in data set [4] was 2.2 µg/mL (≈ 3.22 µM) throughout.

In the case of `NCC(=O)N[C@H]1CC[C@@H](NC(=O)[C@H]2CC[C@H](C(F)(F)c3cc(Cl)nc(N4CCN(S(=O)(=O)c5ccc(N6C[C@H](N)CC6=O)cc5)CC4)c3)CC2)C1` [Example 079, Trans-N-[(1R,3S)-3-[(2-aminoacetyl)amino]cyclopentyl]-4-[[2-[4-[4-[(4R)-4-amino-2-oxo-pyrrolidin-1-yl]phenyl]sulfonylpiperazin-1-yl]-6-chloro-4-pyridyl]-difluoro-methyl]cyclohexanecarboxamide], the minimum inhibitory concentration (MIC) in data set [2] was determined as 0.85 µg/mL (≈ 1.13 µM); in data set [3] (setting [6]) it was 3.4 µg/mL (≈ 4.53 µM); in data set [4], 3.4 µg/mL (≈ 4.53 µM). Moreover, in data set [5] (setting [8]), the “Clearance of Human microsome” value turned out to be 11.16 mL/min/kg.

With `N[C@@H]1CC(=O)N(c2ccc(S(=O)(=O)N3CCN(c4cc(C(F)(F)[C@H]5CC[C@H](C(=O)N[C@H]6CCC(N7C[C@H](N)C[C@H](N)C7)C6)CC5)cc(Cl)n4)CC3)cc2)C1` (stereo partly drawn) [Example 081, Trans-4-[[2-chloro-6-[4-[4-[(4R)-4-amino-2-oxo-pyrrolidin-1-yl]phenyl]sulfonylpiperazin-1-yl]-4-pyridyl]-difluoro-methyl]-N-[(1S)-3-[cis-3,5-diamino-1-piperidyl]cyclopentyl]cyclohexanecarboxamide], the MIC in data set [2], in data set [3] (setting [6]) and in data set [4] was 0.65 µg/mL (≈ 0.82 µM) each time. In addition, the “Clearance of Human microsome” value in data set [5] (setting [8]) was determined as 6.71 mL/min/kg.

For the molecule `C[N+](C)(CCCN)CCCNC(=O)[C@H]1CC[C@H](C(F)(F)c2cc(Cl)nc(N3CCN(S(=O)(=O)c4ccc(N5C[C@H](N)CC5=O)cc4)CC3)c2)CC1` [Example 084, Trans-3-[[4-[[2-[4-[4-[(4R)-4-amino-2-oxo-pyrrolidin-1-yl]phenyl]sulfonylpiperazin-1-yl]-6-chloro-4-pyridyl]-difluoro-methyl]cyclohexanecarbonyl]amino]propyl-(3-aminopropyl)-dimethyl-ammonium], the figures for the MIC in data set [2], in data set [3] (setting [6]) and in data set [4] were 0.81 µg/mL, 0.48 µg/mL and 0.48 µg/mL, respectively. Also, the “Clearance of Human microsome” value in data set [5] (setting [8]) is 9.7 mL/min/kg.

“Trans-N-[(1R,3S)-3-aminocyclopentyl]-4-[2-[4-[4-[(4R)-4-amino-2-oxo-pyrrolidin-1-yl]phenyl]sulfonylpiperazin-1-yl]-6-chloro-4-pyridyl]-difluoro-methyl]cyclohexanecarboxamide [Example 066]”: in data set [2] (20 hours at 35° C.), the “MIC K. p ATCC 43816” value was 0.59 µg/mL. Moreover, the “MIC E. coli K-12 ATCC 25922” value in data set [3] (broth dilution, 20 hours at 35° C., CAMHB) was determined as 0.63 µg/mL. For the same molecule, the “Clearance of Human microsome” value in data set [5] (human, microsomes, pH 7.4) was 6.15 mL/min/kg. In data set [4] (20 hours at 35° C.), the “MIC E. coli K-12 BW 25113” value is 1.3 µg/mL.

For the origin of these results see US20240417387A1, “SULFONYLPIPERAZINYL COMPOUNDS FOR TREATMENT OF BACTERIAL INFECTIONS” (Hoffmann-La Roche Inc., priority 2021, published 2024).
